# In patent US11453697B1, “Cyclic di-nucleotide compounds as sting agonists” (Merck Sharp & Dohme Corp., priority 2015, dated 2022):
# Like-named read-outs stand apart in the source and are kept apart here.
# Legend:
# full-length WT STING = full-length WT STING (Homo sapiens (Human), UniProt Q86WV6, H232R); test: 3H-cGAMP filtration binding assay (WT STING)
# Procedure: The ability of compounds to bind STING is quantified by their ability to compete with tritiated cGAMP ligand for human STING receptor membrane using a radioactive filter-binding assay.
# The basic WT STING filtration assay protocol is as follows:
# Tritium levels for each reaction well were then measured using a PerkinElmer TopCount plate reader.
# After normalization to controls, the percent activity for each compound concentration was calculated by measuring the amount of remaining radioactivity. The plot of percent activity versus the log of compound concentration was fit with a 4-parameter dose response equation to calculate EC50 values.
# [1] = tested on: IFN-β secretion in THP1 cells; test: IFN-β secretion in THP1 cell culture (5 h); format: cell-based, human
# Method in brief: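 THP1 cells incubated with compound for 5 h at 37 °C, 5% CO2, and secreted IFN-β in supernatant quantified by AlphaLISA. Percent effect normalised to 30 uM cGAMP positive control and 0.3% DMSO. EC50 from 4-parameter fit.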
# full-length HAQ STING = full-length HAQ STING (Homo sapiens (Human), UniProt Q86WV6, G230A/H232R/R293Q/R71H); test: 3H-cGAMP filtration binding assay (HAQ STING); settings: competition with tritiated cGAMP, HAQ STING membrane; read-out: EC50 (nM), 3H-cGAMP filtration binding assay for HAQ STING
# Method in brief: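 Competition binding of compounds against 8 nM [3H]cGAMP working stock on Hi-Five cell membranes overexpressing full-length HAQ STING; compound and membrane preincubated 60 min at RT before ligand addition. Bound radioactivity read by filtration and scintillation counting; percent activity normalized to controls, EC50 from 4-parameter fit.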
# [2] = competition with tritiated cGAMP, WT STING membrane; read-out: EC50 (nM), 3H-cGAMP filtration binding assay for WT STING
# [3] = IFN-β secretion in THP1 cell culture, 5 h, compound at 30 μM, percent activation relative to 2′3′-cGAMP
# [4] = read-out: % Inh @ 20 uM, 3H-cGAMP filtration binding assay for WT STING
# Chain of full-length WT STING (Q86WV6 other isoform, or with tags, fused parts or gaps H232R (already in the parent)): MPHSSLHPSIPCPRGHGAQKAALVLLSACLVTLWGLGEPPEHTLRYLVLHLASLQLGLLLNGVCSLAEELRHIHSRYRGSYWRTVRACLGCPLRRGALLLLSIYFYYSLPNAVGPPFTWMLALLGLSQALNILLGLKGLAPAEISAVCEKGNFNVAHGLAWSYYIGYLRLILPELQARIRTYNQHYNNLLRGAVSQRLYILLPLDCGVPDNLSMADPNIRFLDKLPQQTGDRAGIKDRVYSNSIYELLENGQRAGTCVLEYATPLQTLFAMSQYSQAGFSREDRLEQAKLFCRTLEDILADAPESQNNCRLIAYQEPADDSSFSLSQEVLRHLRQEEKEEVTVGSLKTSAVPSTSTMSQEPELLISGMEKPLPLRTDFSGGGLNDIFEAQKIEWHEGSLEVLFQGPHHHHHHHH
# Chain of full-length HAQ STING (Q86WV6 other isoform, or with tags, fused parts or gaps, stated change not applied): as the sequence (Q86WV6 other isoform, or with tags, fused parts or gaps H232R (already in the parent)) above, with R71H, G230A, R293Q counted along it
EC50 (full-length WT STING; [2]),EC50 (full-length HAQ STING),Compound,"% Effect at 30 μM relative to 2′3′-cGAMP [1, 3]",% Effect at 30 μM relative to 2′3′-cGAMP [1],other results
302 nM,,"Nc1nc2c(ncn2[C@@H]2O[C@@H]3COP(=O)(S)O[C@H]4C[C@H](n5cc(F)c6c(N)ncnc65)O[C@@H]4COP(=O)(O)O[C@@H]2[C@@H]3F)c(=O)[nH]1 (stereo partly drawn) [Example 255, 2-amino-9-[(5R,7R,8S,12aR,14R,15aS,16R)-14-(4-amino-5-fluoro-7H-pyrrolo[2,3-d]pyrimidin-7-yl)-16-fluoro-10-hydroxy-2,10-dioxido-2-sulfanyloctahydro-12H-5,8-methanofuro[3,2-1][1,3,6,9,11,2,10]pentaoxadiphosphacyclo-tetradecin-7-yl]-1,9-dihydro-6H-purin-6-one]",49%,,
93.5 nM,,"Nc1nc2c(ncn2[C@@H]2O[C@@H]3COP(=O)(S)O[C@H]4C[C@H](n5cc(F)c6c(N)ncnc65)O[C@@H]4COP(=O)(O)O[C@@H]2[C@@H]3F)c(=O)[nH]1 (stereo partly drawn) [Example 256, 2-amino-9-[(5R,7R,8S,12aR,14R,15aS,16R)-14-(4-amino-5-fluoro-7H-pyrrolo[2,3-d]pyrimidin-7-yl)-16-fluoro-10-hydroxy-2,10-dioxido-2-sulfanyloctahydro-12H-5,8-methanofuro[3,2-1][1,3,6,9,11,2,10]pentaoxadiphosphacyclo-tetradecin-7-yl]-1,9-dihydro-6H-purin-6-one]",149%,,
,12.4 nM,"C[C@H]1OP(=O)(O)O[C@@H]2C[C@@H](COP(=O)(O)O[C@H]3[C@@H](O)[C@H](n4cnc5c(N)ncnc54)O[C@@H]31)O[C@H]2n1cnc2c(=O)[nH]c(N)nc21 [Example 16, 2-amino-9-[(5S,7R,8R,12R,12aR,14R,15R,15aS)-14-(6-amino-9H-purin-9-yl)-2,10,15-trihydroxy-12-methyl-2,10-dioxidooctahydro-12H-5,8-methanofuro[3,2-l][1,3,6,9,11,2,10]pentaoxadiphosphacyclotetradecin-7-yl]-1,9-dihydro-6H-purin-6-one]",57%,,
,21.5 nM,"NC[C@H]1[C@H]2OP(=O)(O)OC[C@H]3O[C@@H](n4cnc5c(N)ncnc54)[C@H](O)[C@@H]3OP(=O)(O)OC[C@H]1O[C@H]2n1cnc2c(=O)[nH]c(N)nc21 [Example 36, 2-amino-9-[(5S,7R,8R,12aR,14R,15R,15aS,16R)-16-(aminomethyl)-14-(6-amino-9H-purin-9-yl)-2,10,15-trihydroxy-2,10-dioxidooctahydro-12H-5,8-methanofuro[3,2-l][1,3,6,9,11,2,10]pentaoxadiphosphacyclotetradecin-7-yl]-1,9-dihydro-6H-purin-6-one]",120%,,
,739 nM,"Nc1nc2c(ncn2[C@@H]2O[C@@H]3COP(=O)(S)O[C@H]4[C@H](F)[C@H](n5nnc6c(N)ncnc65)O[C@@H]4COP(=O)(S)O[C@@H]2C3)c(=O)[nH]1 (stereo partly drawn) [Example 138, 2-amino-9-[(5S,7R,8R,12aR,14R,15S,15aR)-14-(7-amino-3H-[1,2,3]triazolo[4,5-d]pyrimidin-3-yl)-15-fluoro-2,10-dioxido-2,10-disulfanyloctahydro-12H-5,8-methanofuro[3,2-l] [1,3,6,9,11,2,10]pentaoxadiphosphacyclotetra-decin-7-yl]-1,9-dihydro-6H-purin-6-one]",51%,,
422 nM,,"Nc1nc2c(ncn2[C@@H]2O[C@@H]3COP(=O)(S)O[C@H]4C[C@H](c5cnc6c(=O)[nH]cnn56)O[C@@H]4COP(=O)(S)O[C@@H]2[C@@H]3F)c(=O)[nH]1 (stereo partly drawn) [Example 336, 7-[(5R,7R,8S,12aR,14R,15aS,16R)-7-(2-amino-6-oxo-1,6-dihydro-9H-purin-9-yl)-16-fluoro-2,10-dioxido-2,10-disulfanyloctahydro-12H-5,8-methanofuro[3,2-l][1,3,6,9,11,2,10]pentaoxadiphosphacyclotetradecin-14-yl]imidazo[2,1-f][1,2,4]triazin-4(3H)-one]",85%,,

# Further lines, the molecule ahead of its results:
Compound,EC50 (full-length WT STING; [2]),EC50 (full-length HAQ STING),"% Effect at 30 μM relative to 2′3′-cGAMP [1, 3]",% Effect at 30 μM relative to 2′3′-cGAMP [1],other results
"Nc1nc2c(ncn2[C@@H]2O[C@@H]3COP(O)(=S)O[C@H]4[C@H](F)[C@H](n5cnc6c(N)ncnc65)O[C@@H]4COP(O)(=S)O[C@@H]2C3(F)F)c(=O)[nH]1 (single isomer, unassigned) [Example 156]",,,,119%,"EC50 (full-length WT STING; read-out: EC50 (nM), 3H-cGAMP filtration binding assay for WT STING; competition with tritiated cGAMP, WT STING membrane): < 1 nM"
"Nc1nc2c(ncn2[C@@H]2O[C@@H]3COP(O)(=S)O[C@H]4[C@H](F)[C@H](n5cnc6c(N)ncnc65)O[C@@H]4COP(O)(=S)O[C@@H]2C3(F)F)c(=O)[nH]1 (single isomer, unassigned) [Example 155]",,,,139%,"EC50 (full-length WT STING; EC50 (nM), 3H-cGAMP filtration binding assay for WT STING, competition with tritiated cGAMP, WT STING membrane): < 1 nM"
"Nc1nc2c(ncn2[C@@H]2O[C@@H]3COP(=O)(S)O[C@H]4[C@@H](O)[C@H](n5ccc6c(N)ncnc65)O[C@@H]4COP(=O)(O)O[C@@H]2[C@@H]3O)c(=O)[nH]1 (stereo partly drawn) [Example 43, 2-amino-9-[(5R,7R,8R,12aR,14R,15R,15aS,16R)-14-(4-amino-7H-pyrrolo[2,3-d]pyrimidin-7-yl)-10,15,16-trihydroxy-2,10-dioxido-2-sulfanyloctahydro-12H-5,8-methanofuro[3,2-l][1,3,6,9,11,2,10]pentaoxadiphosphacyclotetradecin-7-yl]-1,9-dihydro-6H-purin-6-one]",1020 nM,162 nM,,130%,
"Nc1cc2c(ncn2[C@@H]2O[C@@H]3COP(=O)(S)O[C@H]4[C@H](F)[C@H](n5ccc6c(N)ncnc65)O[C@@H]4COP(=O)(S)O[C@@H]2[C@@H]3F)c(=O)[nH]1 (single isomer, unassigned) [Example 229]",,,,,inhibition at 20 µM (full-length WT STING; [4]): 31%
"Nc1nc2c(ncn2[C@@H]2O[C@@H]3COP(O)(=S)O[C@H]4[C@@H](O)[C@H](n5cnc6c(N)ncnc65)O[C@@H]4COP(=O)(O)O[C@@H]2[C@@H]3O)c(=O)[nH]1 (stereo partly drawn) [Example 38, 2-amino-9-[(5R,7R,8R,12aR,14R,15R,15aS,16R)-14-(6-amino-9H-purin-9-yl)-2,10,15,16-tetrahydroxy-10-oxido-2-sulfidooctahydro-12H-5,8-methanofuro[3,2-l][1,3,6,9,11,2,10]pentaoxadiphosphacyclotetradecin-7-yl]-1,9-dihydro-6H-purin-6-one]",24.9 nM,3 nM,,123%,
"Nc1nc2c(nnn2[C@@H]2O[C@@H]3COP(O)(=S)O[C@@H]4[C@@H](COP(O)(=S)O[C@@H]2[C@H]3F)O[C@@H](n2ccc3c(N)ncnc32)C4(F)F)c(=O)[nH]1 (stereo partly drawn) [Example 220, 5-amino-3-[(5R,7R,8S,12aR,14R,15aR,16S)-14-(4-amino-7H-pyrrolo[2,3-d]pyrimidin-7-yl)-15,15,16-trifluoro-2,10-dihydroxy-2,10-disulfidooctahydro-12H-5,8-methanofuro[3,2-l][1,3,6,9,11,2,10]pentaoxadiphosphacyclotetra-decin-7-yl]-3,6-dihydro-7H-[1,2,3]triazolo[4,5-d]pyrimidin-7-one]",,,,6%,inhibition at 20 µM (full-length WT STING; [4]): 29%
"Nc1nc2c(ncn2[C@@H]2O[C@@H]3COP(=O)(O)O[C@H]4[C@@H](O)[C@H](c5cnn6c(N)ncnc56)O[C@@H]4COP(=O)(O)O[C@@H]2[C@@H]3O)c(=O)[nH]1 [Example 54, 2-amino-9-[(5R,7R,8R,12aR,14S,15S,15aS,16R)-14-(4-aminopyrazolo[1,5-a][1,3,5]triazin-8-yl)-2,10,15,16-tetrahydroxy-2,10-dioxidooctahydro-12H-5,8-methanofuro[3,2-l][1,3,6,9,11,2,10]pentaoxadiphosphacyclotetradecin-7-yl]-1,9-dihydro-6H-purin-6-one]",,< 1 nM,,83%,
"Nc1nc2c(ncn2[C@@H]2S[C@@H]3COP(=O)(O)OC4C(O)[C@H](n5cnc6c(N)ncnc65)O[C@@H]4COP(=O)(O)OC2C3O)c(=O)[nH]1 (stereo in doubt) [Example 11, (5R,7R,8R,12aR,14R,15R,15aS,16S)-7-(2-amino-6-oxo-1,6-dihydro-9H-purin-9-yl)-14-(6-amino-9H-purin-9-yl)-15,16-dihydroxyoctahydro-12H-5,8-methanofuro[3,2-l][1,3,9,11,6,2,10] tetraoxathiadiphosphacyclotetradecine-2,10-diolate 2,10-dioxide]",,1.2 nM,169%,,
